According to patent publication US9550772B2, “Azaindole derivatives as multi kinase inhibitors” (ORIBASE PHARMA, priority 2012, dated 2017):
Like-named read-outs stand apart in the source and are kept apart here.

Assays:
[1] = tested on: HUVEC cells; assay: In vitro cell proliferation assay (MTT); assay type: cell-based; settings: Homo sapiens, 72 hr, read-out: EC50, anti-proliferative activity
Method: (§1) Cancer cell lines (5×10^3 cells per well) or HUVEC (1×10^4 cells per well) or HRMEC (1×10^4 cells per well) were distributed in 96-well plates and incubating in duplicate with escalating concentrations (10 nM to 3 μM) of compounds for 72 hr. Cell proliferation was measured using MTT (3[4,5-dimethylthiazol-2-yl]-2,5-diphenyltetrazolium bromide). The EC50 values were calculated from sigmoidal dose-response curves utilizing Prism 5.0 from Graph-Pad Software (GraphPad Software, La Jolla, Calif., USA), with values normalized to those of DMSO-treated control wells (0%) and 1% SDS control wells (100%).

[2] = tested on: HepG2 cell line; assay: In vitro cell proliferation assay (MTT); assay type: cell-based; settings: Homo sapiens, HepG2, 72 hr, read-out: EC50, anti-proliferative activity
Method: as §1

[3] = molecular target: T1, BRAF (Homo sapiens, UniProt P15056); assay: In vitro kinase assay (Z'-LYTE, Invitrogen); assay type: biochemical; settings: compound at 100 nM, ATP Km apparent, read-out: % of inhibition of the kinase compared to the control
T1 construct: purchased Invitrogen
Method: (§2) The inhibitory activity of the compounds on 7 kinases (BRAF, EGFR (ErbB1), EGFR (ErbB1) T790M L858R, FGFR2, KDR (VEGFR2), PDGFRA (PDGFR alpha), SRC) was evaluated by Invitrogen using the Z′-LYTE® technology. Briefly, the Z′-LYTE® biochemical assay employs a fluorescence-based, coupled-enzyme format and is based on the differential sensitivity of phosphorylated and non-phosphorylated peptides to proteolytic cleavage. The peptide substrate is labeled with two fluorophores—one at each end—that make up a FRET pair. A ratiometric method, which calculates the ratio (the Emission Ratio) of donor emission to acceptor emission after excitation of the donor fluorophore at 400 nm, is used to quantitate reaction progress.
(§3) The compounds are screened in 1% DMSO (final) in the well. For 10 point titrations, 3-fold serial dilutions are conducted from the starting concentration. All Peptide/Kinase Mixtures are diluted to a 2× working concentration in the appropriate Kinase Buffer. All ATP Solutions are diluted to a 4× working concentration in Kinase Buffer (50 mM HEPES pH 7.5, 0.01% BRIJ-35, 10 mM MgCl2, 1 mM EGTA). ATP Km apparent is previously determined using a Z′-LYTE® assay.
(§4) Each compound was incubated at a concentration of 100 nM and the tables 21 to 27 summarize the results obtained showing the inhibitory power of a compound.

[4] = molecular target: T2, EGFR (ErbB1) (Homo sapiens, UniProt P00533); assay: In vitro kinase assay (Z'-LYTE, Invitrogen); assay type: biochemical; settings: compound at 100 nM, ATP Km apparent, read-out: % of inhibition of the kinase compared to the control
T2 construct: purchased Invitrogen
Method: as §2, §3, §4

[5] = molecular target: T3, KDR (VEGFR2) (Homo sapiens, UniProt P35968); assay: In vitro kinase assay (Z'-LYTE, Invitrogen); assay type: biochemical; settings: compound at 100 nM, ATP Km apparent, read-out: % of inhibition of the kinase compared to the control
T3 construct: purchased Invitrogen
Method: as §2, §3, §4

[6] = molecular target: T4, FGFR2 (Homo sapiens, UniProt P21802); assay: In vitro kinase assay (Z'-LYTE, Invitrogen); assay type: biochemical; settings: compound at 100 nM, ATP Km apparent, read-out: % of inhibition of the kinase compared to the control
T4 construct: purchased Invitrogen
Method: as §2, §3, §4

[7] = molecular target: T5, PDGFRA (PDGFR alpha) (Homo sapiens, UniProt P16234); assay: In vitro kinase assay (Z'-LYTE, Invitrogen); assay type: biochemical; settings: compound at 100 nM, ATP Km apparent, read-out: % of inhibition of the kinase compared to the control
T5 construct: purchased Invitrogen
Method: as §2, §3, §4

[8] = molecular target: T6, SRC (Homo sapiens, UniProt P12931); assay: In vitro kinase assay (Z'-LYTE, Invitrogen); assay type: biochemical; settings: compound at 100 nM, ATP Km apparent, read-out: % of inhibition of the kinase compared to the control
T6 construct: purchased Invitrogen
Method: as §2, §3, §4

T5 sequence (P16234 24-1089): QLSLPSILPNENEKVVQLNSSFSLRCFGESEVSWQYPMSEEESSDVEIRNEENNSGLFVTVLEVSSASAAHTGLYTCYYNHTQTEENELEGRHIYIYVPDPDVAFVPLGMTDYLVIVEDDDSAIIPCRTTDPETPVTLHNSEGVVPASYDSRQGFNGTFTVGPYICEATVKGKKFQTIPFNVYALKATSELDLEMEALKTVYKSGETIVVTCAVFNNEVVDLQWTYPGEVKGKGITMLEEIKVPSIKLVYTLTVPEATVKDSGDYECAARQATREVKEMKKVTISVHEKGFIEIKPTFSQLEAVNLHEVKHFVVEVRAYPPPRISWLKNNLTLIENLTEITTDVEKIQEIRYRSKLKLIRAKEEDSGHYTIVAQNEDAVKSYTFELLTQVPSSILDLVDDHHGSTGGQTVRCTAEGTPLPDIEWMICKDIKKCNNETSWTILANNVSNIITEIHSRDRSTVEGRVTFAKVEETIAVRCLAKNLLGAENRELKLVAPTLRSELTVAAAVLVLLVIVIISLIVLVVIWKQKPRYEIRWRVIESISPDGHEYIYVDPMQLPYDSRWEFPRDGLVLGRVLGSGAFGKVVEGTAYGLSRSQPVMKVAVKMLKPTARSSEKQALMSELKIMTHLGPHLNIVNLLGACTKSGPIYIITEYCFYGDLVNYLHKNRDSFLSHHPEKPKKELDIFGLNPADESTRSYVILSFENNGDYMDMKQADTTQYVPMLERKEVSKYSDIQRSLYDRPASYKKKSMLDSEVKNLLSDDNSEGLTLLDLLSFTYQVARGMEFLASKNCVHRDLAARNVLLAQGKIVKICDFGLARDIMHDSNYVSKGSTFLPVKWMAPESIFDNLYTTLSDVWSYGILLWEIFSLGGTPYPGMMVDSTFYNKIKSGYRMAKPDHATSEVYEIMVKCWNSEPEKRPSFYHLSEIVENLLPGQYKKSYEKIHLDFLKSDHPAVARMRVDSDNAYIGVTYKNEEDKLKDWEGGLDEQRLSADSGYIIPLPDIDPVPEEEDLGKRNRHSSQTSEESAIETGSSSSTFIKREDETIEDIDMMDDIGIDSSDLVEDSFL
T6 sequence (P12931 whole entry): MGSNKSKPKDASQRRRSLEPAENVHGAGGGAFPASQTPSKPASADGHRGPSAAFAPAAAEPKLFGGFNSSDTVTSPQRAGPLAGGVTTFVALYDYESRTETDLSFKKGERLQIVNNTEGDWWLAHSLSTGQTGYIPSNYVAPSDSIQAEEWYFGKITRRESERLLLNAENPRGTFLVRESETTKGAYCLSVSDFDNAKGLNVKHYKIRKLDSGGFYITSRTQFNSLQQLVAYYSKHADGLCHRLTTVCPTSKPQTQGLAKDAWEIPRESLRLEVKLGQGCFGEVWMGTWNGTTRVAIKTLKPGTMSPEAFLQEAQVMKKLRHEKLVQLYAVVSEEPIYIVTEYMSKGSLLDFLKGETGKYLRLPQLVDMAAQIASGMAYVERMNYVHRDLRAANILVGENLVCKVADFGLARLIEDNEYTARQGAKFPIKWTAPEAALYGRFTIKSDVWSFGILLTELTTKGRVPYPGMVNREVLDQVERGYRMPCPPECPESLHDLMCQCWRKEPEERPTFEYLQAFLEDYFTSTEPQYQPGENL
T4 sequence (P21802 22-821): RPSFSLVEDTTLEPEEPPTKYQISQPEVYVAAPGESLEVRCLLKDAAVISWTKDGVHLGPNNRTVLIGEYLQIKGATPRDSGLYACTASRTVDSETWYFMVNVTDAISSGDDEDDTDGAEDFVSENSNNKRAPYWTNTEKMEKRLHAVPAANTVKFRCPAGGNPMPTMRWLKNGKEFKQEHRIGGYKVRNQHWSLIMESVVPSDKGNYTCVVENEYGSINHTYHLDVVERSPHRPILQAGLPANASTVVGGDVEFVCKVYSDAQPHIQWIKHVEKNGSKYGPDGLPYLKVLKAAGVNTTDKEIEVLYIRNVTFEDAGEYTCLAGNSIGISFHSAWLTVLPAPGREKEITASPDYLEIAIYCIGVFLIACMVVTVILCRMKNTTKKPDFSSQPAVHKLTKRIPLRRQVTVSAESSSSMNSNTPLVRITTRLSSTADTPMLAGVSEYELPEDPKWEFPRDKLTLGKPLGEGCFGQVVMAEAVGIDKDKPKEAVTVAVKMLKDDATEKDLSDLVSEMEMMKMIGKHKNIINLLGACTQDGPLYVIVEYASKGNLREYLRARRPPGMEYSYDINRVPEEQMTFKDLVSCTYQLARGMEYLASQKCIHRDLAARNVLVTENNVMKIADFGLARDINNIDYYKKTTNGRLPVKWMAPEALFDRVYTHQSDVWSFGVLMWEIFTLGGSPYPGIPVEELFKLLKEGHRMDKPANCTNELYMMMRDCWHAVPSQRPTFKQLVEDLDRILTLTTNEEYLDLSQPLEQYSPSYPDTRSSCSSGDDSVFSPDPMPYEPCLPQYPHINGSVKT
T3 sequence (P35968 20-1356): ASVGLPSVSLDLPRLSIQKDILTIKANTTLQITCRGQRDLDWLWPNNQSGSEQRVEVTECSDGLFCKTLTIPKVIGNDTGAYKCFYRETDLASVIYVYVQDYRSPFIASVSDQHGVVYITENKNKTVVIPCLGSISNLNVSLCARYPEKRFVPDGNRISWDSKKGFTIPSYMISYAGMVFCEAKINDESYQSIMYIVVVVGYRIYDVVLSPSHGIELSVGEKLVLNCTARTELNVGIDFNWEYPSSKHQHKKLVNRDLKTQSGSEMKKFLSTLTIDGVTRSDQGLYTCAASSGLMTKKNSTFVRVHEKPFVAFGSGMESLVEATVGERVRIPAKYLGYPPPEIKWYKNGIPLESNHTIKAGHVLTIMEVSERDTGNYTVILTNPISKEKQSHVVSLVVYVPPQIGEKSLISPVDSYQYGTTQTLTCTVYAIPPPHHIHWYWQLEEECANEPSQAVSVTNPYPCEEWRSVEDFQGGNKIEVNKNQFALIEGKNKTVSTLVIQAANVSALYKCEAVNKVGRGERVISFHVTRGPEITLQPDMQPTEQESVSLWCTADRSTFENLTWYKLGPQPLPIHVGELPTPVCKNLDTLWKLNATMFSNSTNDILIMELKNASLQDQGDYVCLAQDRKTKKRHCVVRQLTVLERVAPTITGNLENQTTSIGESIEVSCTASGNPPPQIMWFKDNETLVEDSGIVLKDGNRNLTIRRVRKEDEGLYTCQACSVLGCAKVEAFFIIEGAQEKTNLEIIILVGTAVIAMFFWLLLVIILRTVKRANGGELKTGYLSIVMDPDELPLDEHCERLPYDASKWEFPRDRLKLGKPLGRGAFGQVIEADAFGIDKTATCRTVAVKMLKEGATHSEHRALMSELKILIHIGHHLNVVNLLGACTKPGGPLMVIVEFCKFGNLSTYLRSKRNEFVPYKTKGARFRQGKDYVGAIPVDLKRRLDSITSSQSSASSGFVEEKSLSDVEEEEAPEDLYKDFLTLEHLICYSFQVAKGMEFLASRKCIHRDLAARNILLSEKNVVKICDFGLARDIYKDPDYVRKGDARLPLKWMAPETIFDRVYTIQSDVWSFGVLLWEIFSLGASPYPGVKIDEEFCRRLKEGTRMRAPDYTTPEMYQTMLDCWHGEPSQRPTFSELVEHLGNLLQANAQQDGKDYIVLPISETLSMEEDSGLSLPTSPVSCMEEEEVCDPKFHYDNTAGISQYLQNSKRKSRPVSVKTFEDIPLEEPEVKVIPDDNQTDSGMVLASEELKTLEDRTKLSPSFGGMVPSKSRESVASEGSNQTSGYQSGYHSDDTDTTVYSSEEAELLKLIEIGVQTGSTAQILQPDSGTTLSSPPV
T2 sequence (P00533 25-1210): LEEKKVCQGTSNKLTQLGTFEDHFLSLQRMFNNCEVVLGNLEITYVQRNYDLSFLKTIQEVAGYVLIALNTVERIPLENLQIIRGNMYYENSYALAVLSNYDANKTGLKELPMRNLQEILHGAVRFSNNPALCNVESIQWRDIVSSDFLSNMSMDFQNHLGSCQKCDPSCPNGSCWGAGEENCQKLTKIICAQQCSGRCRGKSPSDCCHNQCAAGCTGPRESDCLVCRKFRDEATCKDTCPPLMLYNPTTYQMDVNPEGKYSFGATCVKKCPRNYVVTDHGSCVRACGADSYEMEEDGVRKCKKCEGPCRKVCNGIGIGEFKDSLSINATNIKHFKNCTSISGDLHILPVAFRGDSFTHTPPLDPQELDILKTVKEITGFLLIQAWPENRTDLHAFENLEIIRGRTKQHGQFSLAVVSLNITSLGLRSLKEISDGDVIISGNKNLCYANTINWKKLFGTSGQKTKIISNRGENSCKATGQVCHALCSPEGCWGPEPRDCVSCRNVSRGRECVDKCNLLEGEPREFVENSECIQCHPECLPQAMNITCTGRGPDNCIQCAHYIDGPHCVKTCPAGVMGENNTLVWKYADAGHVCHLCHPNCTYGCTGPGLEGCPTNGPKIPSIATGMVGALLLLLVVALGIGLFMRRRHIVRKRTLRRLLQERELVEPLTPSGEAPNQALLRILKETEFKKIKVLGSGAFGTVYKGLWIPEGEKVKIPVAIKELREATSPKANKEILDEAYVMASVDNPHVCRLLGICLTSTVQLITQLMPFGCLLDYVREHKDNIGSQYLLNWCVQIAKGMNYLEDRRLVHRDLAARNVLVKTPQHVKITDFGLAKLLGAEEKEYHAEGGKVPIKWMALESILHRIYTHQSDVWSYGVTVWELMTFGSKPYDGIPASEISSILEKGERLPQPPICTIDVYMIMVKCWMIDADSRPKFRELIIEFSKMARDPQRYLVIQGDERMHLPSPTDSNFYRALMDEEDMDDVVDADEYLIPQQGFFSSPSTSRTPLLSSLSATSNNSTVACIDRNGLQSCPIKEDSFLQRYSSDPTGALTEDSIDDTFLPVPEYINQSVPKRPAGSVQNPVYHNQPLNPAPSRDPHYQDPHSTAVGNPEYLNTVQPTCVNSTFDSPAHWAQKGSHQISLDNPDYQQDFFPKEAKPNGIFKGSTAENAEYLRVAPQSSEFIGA

SMILES | EC50 ([1]; 100 nM < EC50 < 1 μM) [nM] | EC50 ([2]; EC50 ≧ 1 μM) [nM] | inhibition at 0.1 µM [3] [%] | inhibition at 0.1 µM [4] [%] | inhibition at 0.1 µM [5] [%] | inhibition at 0.1 µM [6] [%] | EC50 ([1]; EC50 ≧ 1 μM) [nM] | inhibition at 0.1 µM [7] [%] | inhibition at 0.1 µM [8] [%] | EC50 ([2]; 100 nM < EC50 < 1 μM) [nM]
COC(=O)c1cc2cc(CCc3cccc(NC(=O)c4ccc(CN5CCC(N(C)C)C5)c(C(F)(F)F)c4)c3)cnc2[nH]1 (stereo not drawn) [OR0922, 5-(2-{5-[4-(3-Dimethylamino-pyrrolidin-1-ylmethyl)-3-trifluoromethyl-benzoylamino]-phenyl}-ethyl)-1H-pyrrolo[2,3-b]pyridine-2-carboxylic acid methyl ester] | 100 to 1000 | ≥ 1000 | < 50 | ≥ 50 | ≥ 50 | ≥ 50 |  |  |  | 
COC(=O)c1cc2cc(CCc3cc(NC(=S)c4ccc(CN5CCN(C)CC5)cc4)ccc3C)cnc2[nH]1 [OR0969, 5-(2-{2-Methyl-5-[4-(4-methyl-piperazin-1-ylmethyl)-thiobenzoylamino]-phenyl}-ethyl)-1H-pyrrolo[2,3-b]pyridine-2-carboxylic acid methyl ester] |  | ≥ 1000 | < 50 | ≥ 50 | ≥ 50 | ≥ 50 | ≥ 1000 |  |  | 
CCN(CC)CCNC(=O)c1c(C)[nH]c(/C=C2\C(=O)Nc3ccc(F)cc32)c1C [Sunitinib, reference compound] |  |  |  |  |  |  | ≥ 1000 |  |  | 
COC(=O)c1cc2cc(CCc3cccc(NC(=O)c4cc[nH]c4)c3)cnc2[nH]1 [OR0976, 5-(2-{3-[(1H-Pyrrole-3-carbonyl)-amino]-phenyl}-ethyl)-1H-pyrrolo[2,3-b]pyridine-2-carboxylic acid methyl ester] |  | ≥ 1000 | < 50 | < 50 | < 50 | < 50 | ≥ 1000 | < 50 | < 50 | 
CC(=O)c1cc2cc(CCc3cc(NS(=O)(=O)c4cccc(C(F)(F)F)c4)ccc3C)cnc2[nH]1 [OR0967, N-{3-[2-(2-Acetyl-1H-pyrrolo[2,3-b]pyridin-5-yl)-ethyl]-4-methyl-phenyl}-3-trifluoromethyl-benzenesulfonamide] |  | ≥ 1000 | < 50 | < 50 | < 50 | < 50 | ≥ 1000 | < 50 | < 50 | 
Cc1ccc(NC(=O)c2ccc(CN3CCN(C)CC3)c(C(F)(F)F)c2)cc1CCc1cnc2[nH]c(C(=O)O)cc2c1 [OR1054, 5-(2-{2-Methyl-5-[4-(4-methyl-piperazin-1-ylmethyl)-3-trifluoromethyl-benzoylamino]-phenyl}-ethyl)-1H-pyrrolo[2,3-b]pyridine-2-carboxylic acid] |  |  | < 50 | ≥ 50 | ≥ 50 | ≥ 50 |  |  |  | 
COC(=O)c1cc2cc(CCc3cc(NC(=O)c4ccccc4OC)ccc3Cl)cnc2[nH]1 [OR1064, 5-{2-[2-Chloro-5-(2-methoxy-benzoylamino)-phenyl]-ethyl}-1H-pyrrolo[2,3-b]pyridine-2-carboxylic acid methyl ester] |  |  | < 50 | < 50 | < 50 | < 50 |  | ≥ 50 | < 50 | 
COC(=O)c1cc2cc(CCc3cc(NC(=O)c4ccc(CN5CCN(C)CC5)c(F)c4)ccc3C)cnc2[nH]1 [OR0920, 5-(2-{5-[3-Fluoro-4-(4-methyl-piperazin-1-ylmethyl)-benzoylamino]-2-methyl-phenyl}-ethyl)-1H-pyrrolo[2,3-b]pyridine-2-carboxylic acid methyl ester] |  |  | ≥ 50 | ≥ 50 | ≥ 50 | ≥ 50 | ≥ 1000 |  |  | 100 to 1000
